Data: BindingDB's records for doi:10.1021/jm960441m (Upjohn, 1997)

target: T1, Dimer of Gag-Pol polyprotein [489-587] (Human immunodeficiency virus 1, UniProt P04585); experiment: Protease Inhibition Assay; conditions: pH 5; 22 °C
T1 construct: 489-587
From the text: (§1) HIV-1 protease was purified and refolded from E. coli inclusion bodies. […] In the presence of HIV-l protease, the substrate is rapidly cleaved into two parts. The biotinylated amino terminal fragment binds to the avidin beads while the FITC-containing carboxy1 terminal fragment is removed through the membrane. […] The bound fluorescence is obtained by processing on an IDEXX Screen Machine. Determination of Ki values with this assay requires analysis under conditions in which substrate concentration resides substantially below Km and the inhibitor concentrations greatly exceeds the Ki value and the enzyme concentration.

Row | Structure (SMILES) | Ki [nM]
1 | N#Cc1cccc(S(=O)(=O)Nc2cccc(C(c3c(O)c4c(oc3=O)CCCCCC4)C3CC3)c2)c1 (configuration not stated) [3-cyano-N-{3-[cyclopropyl({4-hydroxy-2-oxo-2H,5H,6H,7H,8H,9H,10H-cycloocta[b]pyran-3-yl})methyl]phenyl}benzene-1-sulfonamide] | 0.6

target: T2, Dimer of Gag-Pol polyprotein [489-587] (Human immunodeficiency virus 1, UniProt P12497); experiment: Protease Inhibition Assay; conditions: not given
T2 construct: 489-587
From the text: as §1

Row | Structure (SMILES) | Ki [nM]
2 | O=c1oc2c(c(O)c1C(c1cccc(NS(=O)(=O)c3cccc4cccnc34)c1)C1CC1)CCCCCC2 (configuration not stated) [N-[3-[Cyclopropyl(5,6,7,8,9,10-hexahydro-4-hydroxy-2-oxo-2H-cycloocta[b]pyran-3-yl)methyl]phenyl]-8-quinolinesulfonamide] | 1.9
3 | [N-]=[N+]=Nc1ccc(S(=O)(=O)Nc2cccc(C(c3c(O)c4c(oc3=O)CCCCCC4)C3CC3)c2)cc1 (configuration not stated) [4-azido-N-{3-[cyclopropyl({4-hydroxy-2-oxo-2H,5H,6H,7H,8H,9H,10H-cycloocta[b]pyran-3-yl})methyl]phenyl}benzene-1-sulfonamide] | 2.6
4 | N#Cc1ccc(S(=O)(=O)Nc2cccc(C(c3c(O)c4c(oc3=O)CCCCCC4)C3CC3)c2)nc1 (configuration not stated) [5-cyano-N-{3-[cyclopropyl({4-hydroxy-2-oxo-2H,5H,6H,7H,8H,9H,10H-cycloocta[b]pyran-3-yl})methyl]phenyl}pyridine-2-sulfonamide] | 1
5 | O=c1oc2c(c(O)c1C(c1cccc(NS(=O)(=O)c3ccc(Cl)c(Cl)c3Cl)c1)C1CC1)CCCCCC2 (configuration not stated) [2,3,4-trichloro-N-{3-[cyclopropyl({4-hydroxy-2-oxo-2H,5H,6H,7H,8H,9H,10H-cycloocta[b]pyran-3-yl})methyl]phenyl}benzene-1-sulfonamide] | 8.8
6 | O=c1oc2c(c(O)c1C(c1cccc(NS(=O)(=O)c3ccc(OC(F)(F)F)cc3)c1)C1CC1)CCCCCC2 (configuration not stated) [N-{3-[cyclopropyl({4-hydroxy-2-oxo-2H,5H,6H,7H,8H,9H,10H-cycloocta[b]pyran-3-yl})methyl]phenyl}-4-(trifluoromethoxy)benzene-1-sulfonamide] | 4
7 | O=c1oc2c(c(O)c1C(c1cccc(NS(=O)(=O)c3ccc(F)cc3F)c1)C1CC1)CCCCCC2 (configuration not stated) [N-{3-[cyclopropyl({4-hydroxy-2-oxo-2H,5H,6H,7H,8H,9H,10H-cycloocta[b]pyran-3-yl})methyl]phenyl}-2,4-difluorobenzene-1-sulfonamide] | 4.1
